Source: patent publication US7837991B2, “Method of cancer treatment by p53 protein control” (Aventis Pharma, S.A., priority 1994, dated 2010)

T1: bovine m-calpain (Bos taurus, UniProt Q27971)
T1 construct: purchased Sigma
T1 sequence (Q27971 20-700 limits assumed): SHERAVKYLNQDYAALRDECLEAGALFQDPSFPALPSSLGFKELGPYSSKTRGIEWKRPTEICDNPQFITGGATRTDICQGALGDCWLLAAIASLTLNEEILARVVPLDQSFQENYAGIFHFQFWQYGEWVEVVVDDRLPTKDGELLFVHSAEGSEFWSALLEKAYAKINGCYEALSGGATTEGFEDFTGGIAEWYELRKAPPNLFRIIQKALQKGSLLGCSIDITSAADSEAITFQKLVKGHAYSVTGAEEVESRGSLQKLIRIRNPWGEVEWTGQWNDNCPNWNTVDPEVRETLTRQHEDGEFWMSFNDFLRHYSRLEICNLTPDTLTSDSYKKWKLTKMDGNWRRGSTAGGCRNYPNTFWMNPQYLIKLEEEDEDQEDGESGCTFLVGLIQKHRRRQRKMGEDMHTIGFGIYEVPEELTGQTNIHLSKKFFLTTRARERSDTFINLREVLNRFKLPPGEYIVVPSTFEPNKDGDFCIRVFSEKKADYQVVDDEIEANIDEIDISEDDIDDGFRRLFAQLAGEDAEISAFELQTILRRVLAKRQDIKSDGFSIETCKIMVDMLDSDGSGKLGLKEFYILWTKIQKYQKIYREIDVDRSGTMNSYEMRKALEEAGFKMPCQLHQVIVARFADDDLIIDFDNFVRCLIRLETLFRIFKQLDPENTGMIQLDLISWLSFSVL
T1 sequence (P13135 1-263 partner): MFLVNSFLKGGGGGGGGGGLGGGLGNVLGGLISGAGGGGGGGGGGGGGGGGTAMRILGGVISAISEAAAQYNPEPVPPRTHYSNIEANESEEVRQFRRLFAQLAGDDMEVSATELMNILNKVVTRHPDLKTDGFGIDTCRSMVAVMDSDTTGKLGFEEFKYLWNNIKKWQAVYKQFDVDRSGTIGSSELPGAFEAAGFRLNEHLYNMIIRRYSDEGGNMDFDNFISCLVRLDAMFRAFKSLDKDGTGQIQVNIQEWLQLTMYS

B1: soybean trypsin inhibitor (protein, UniProt P01070 25-205, looked up)
Trypsin inhibitor A: DFVLDNEGNPLENGGTYYILSDITAFGGIRAAPTGNERCPLTVVQSRNELDKGIGTIISSPYRIRFIAEGHPLSLKFDSFAVIMLCVGIPTEWSVVEDLPEGPAVKIGENKDAMDGWFRLERVSDDEFNNYKLVFCPQQAEDDKCGDIGISIDHDDGTRRLVVSKNKPLVVQFQKLDKESL

What was measured:
[1] = tested on: calpains of the cytoplasmic extract; test: Degradation of p53 proteins by endogenous calpains in cytoplasmic extracts of Daudi or Jurkat cells; assay type: biochemical, human; conditions: in the presence of calcium
Experimental: 2.1. Degradation by the endogenous calpains: mouse and human wild-type p53 proteins, as well as certain mutated forms (cf Example 1) were translated in the reticulocyte lysate and were then incubated in the presence of cytoplasmic extracts of Daudi or Jurkat human lymphoblastoid cells. The cytoplasmic extracts were prepared in the following manner: the cells (available at the ATCC) were cultured in DMEM medium supplemented with 10% foetal calf serum. The cells were then harvested, washed in PBS buffer and then incubated for 5 min in a detergent-free hypotonic lysis buffer (HEPES 20 mM, pH 7.5; KOAc 10 mM; MgOAc 1.5 mM; 2 ml per 5×10^8 cells). The lysis was completed using a Dounce homogenizer and then checked under a microscope. The nuclei were then removed by centrifugation at 2000 g for 5 min, and the supernatants were centrifuged at 10,000 g for 1 hour (Beckman SW60). The cytoplasmic extracts were then aliquoted in an amount of 5 to 12 mg/ml.

bovine m-calpain = molecular target: T1, bovine m-calpain; test: Degradation of p53 proteins by exogenous m-calpain in rabbit reticulocyte lysate; assay type: biochemical; conditions: m-calpain plus calcium, mouse and human wild-type and mutated p53
Text: 1.1. […] The proteins thus obtained are resistant to any degradation, even in the presence of a high concentration of calcium (cofactor essential for the calpains). The addition of bovine m-calpain (Sigma) to the reticulocyte lysate in the presence of calcium led to the rapid disappearance of the neosynthesized proteins and the appearance of proteolytic fragments which are resolvable by electrophoresis. The degradation resistance of other proteins such as dihydrofolate reductase or glyceraldehyde-3-phosphate dehydrogenase under the same experimental conditions indicates the substrate specificity of the reaction.
1.2. Use of inhibitors of calpain for modulating the levels of p53 proteins: in the above Example 1.1., it was shown that the addition of m-calpain induced degradation of the p53 proteins. In this example, in addition to m-calpain, various compounds were introduced into the medium in order to test their capacity to inhibit the activity of calpain.

Row | Molecule | effect on calcium-dependent degradation of p53 proteins in cytoplasmic extracts [1] | inhibition of the degradation of the p53 proteins induced by the exogenous calpain (bovine m-calpain)
1 | O=S(=O)(F)Cc1ccccc1 [PMSF] | show that the degradation of these proteins is dependent on the calpains | 
2 | CC(=O)N[C@@H](CC(C)C)C(=O)N[C@@H](CC(C)C)C(=O)N[C@H](C=O)CCCNC(=N)N [leupeptin] | show that the degradation of these proteins is dependent on the calpains | 
3 | aprotinin | show that the degradation of these proteins is dependent on the calpains | 
4 | O=C(O)CN(CCOCCOCCN(CC(=O)O)CC(=O)O)CC(=O)O [EGTA] |  | capable of inhibiting the degradation of the p53 proteins
5 | B1 | show that the degradation of these proteins is dependent on the calpains | 
